Patent US6608082B1, “Treatment of erectile dysfunction using isoquinoline compound melanocortin receptor ligands” (Lion Bioscience AG, priority 1998, dated 2003)
Read-outs that look alike come from different tables or passages of the source.

How the values were obtained:
MCR-1 = target: T1, MCR-1 (Homo sapiens, UniProt Q01726); test: Melanocortin receptor binding assay, competition with 125I-HP 467, HEK 293 cells expressing hMCR-1; conditions: for IC50: read-out: MC-1 IC50; for effectiveness as MC receptor ligand: binding to MC receptors, Table 1
T1 construct: expressed in transfected cells; host or cells: HEK 293
Summary of the method: (§1)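 Test compounds compete on intact HEK 293 cells carrying hMCR-1 (2×10^4 per tube) or hMCR-4 (4×10^3 per tube), suspended in PBS, 10% calf serum, 1 mM CaCl2.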

MCR-4 = target: T2, MCR-4 (Homo sapiens, UniProt P32245); test: Melanocortin receptor binding assay, competition with 125I-HP 467, HEK 293 cells expressing hMCR-4; conditions: read-out: MC-4 IC50
T2 construct: expressed in transfected cells; host or cells: HEK 293
Summary of the method: as §1

[1] = competition with 125I-HP 467, HEK 293 cells expressing MCR-1
[2] = competition with 125I-HP 467, HEK 293 cells expressing MCR-4
[3] = inhibition of binding of 125I-HP 467, HEK 293 cells expressing MCR-1
[4] = inhibition of binding of 125I-HP 467, HEK 293 cells expressing MCR-4

T1 sequence (Q01726 whole entry): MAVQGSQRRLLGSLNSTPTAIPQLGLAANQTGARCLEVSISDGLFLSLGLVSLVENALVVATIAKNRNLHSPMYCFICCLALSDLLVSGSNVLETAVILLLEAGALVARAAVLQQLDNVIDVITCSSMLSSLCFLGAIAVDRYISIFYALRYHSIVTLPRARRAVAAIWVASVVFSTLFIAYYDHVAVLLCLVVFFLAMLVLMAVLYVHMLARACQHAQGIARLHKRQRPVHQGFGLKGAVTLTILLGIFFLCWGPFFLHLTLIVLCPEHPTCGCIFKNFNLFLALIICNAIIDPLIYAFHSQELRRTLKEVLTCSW
T2 sequence (P32245 whole entry): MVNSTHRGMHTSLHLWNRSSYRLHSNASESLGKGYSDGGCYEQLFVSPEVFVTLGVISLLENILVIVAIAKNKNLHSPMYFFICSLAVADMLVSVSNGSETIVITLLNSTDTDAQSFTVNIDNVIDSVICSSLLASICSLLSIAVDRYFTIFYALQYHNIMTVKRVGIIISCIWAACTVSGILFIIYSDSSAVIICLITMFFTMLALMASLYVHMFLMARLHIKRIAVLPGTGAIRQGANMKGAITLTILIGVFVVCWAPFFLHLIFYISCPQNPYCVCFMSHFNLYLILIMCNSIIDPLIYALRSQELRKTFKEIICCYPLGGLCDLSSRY

IC50 (MCR-1; [1])	IC50 (MCR-4; [2])	IC50 (MCR-1; [3])	IC50 (MCR-4; [4])	SMILES	effectiveness as MC receptor ligand (MCR-1)
220 nM	1490 nM	–	–	CCCCNc1ccc(C2C(CNCCc3ccccc3)c3ccccc3CN2CCCCC(CN)NCCc2ccccc2)cc1 (stereo not drawn) [TRG 2411-77]	–
450 nM	1320 nM	–	–	CCCCNc1ccc(C2C(CNCCc3ccccc3)c3ccccc3CN2CCCCC(CN)NCCc2ccc(Br)cc2)cc1 (stereo not drawn) [TRG 2411-78]	–
170 nM	1830 nM	–	–	CCCCNc1ccc(C2C(CNCCc3ccccc3)c3ccccc3CN2CCCCC(CN)NCc2ccccc2)cc1 (stereo not drawn) [TRG 2411-80]	–
180 nM	1380 nM	–	–	CCCCNc1ccc(C2C(CNCCc3ccccc3)c3ccccc3CN2CCCCC(CN)NCc2ccc(Cl)cc2)cc1 (stereo not drawn) [TRG 2411-81]	–
290 nM	1460 nM	–	–	CCCCNc1ccc(C2C(CNCCc3ccccc3)c3ccccc3CN2CCCCC(CN)NCc2ccc(OC)cc2)cc1 (stereo not drawn) [TRG 2411-82]	–
570 nM	1060 nM	–	–	CCCCNc1ccc(C2C(CNCCc3ccccc3)c3ccccc3CN2CCCCC(CN)NCCc2ccc3ccccc3c2)cc1 (stereo not drawn) [TRG 2411-83]	–
220 nM	760 nM	–	–	CCCCNc1ccc(C2C(CNCCc3ccccc3)c3ccccc3CN2CCCCC(CN)NCCC2CCCCC2)cc1 (stereo not drawn) [TRG 2411-84]	–
240 nM	1500 nM	–	–	CCCCNc1ccc(C2C(CNC3CCCCC3)c3ccccc3CN2CCCCC(CN)NCCCC)cc1 (stereo not drawn) [TRG 2411-88]	–
250 nM	1170 nM	–	–	CCCCNc1ccc(C2C(CNC3CCCCC3)c3ccccc3CN2CCCCC(CN)NCCc2ccccc2)cc1 (stereo not drawn) [TRG 2411-90]	–
90 nM	1710 nM	–	–	CCCCNc1ccc(C2C(CNC3CCCCC3)c3ccccc3CN2CCCCC(CN)NCc2ccc(Cl)cc2)cc1 (stereo not drawn) [TRG 2411-94]	–
110 nM	1030 nM	–	–	CCCCNc1ccc(C2C(CNC3CCCCC3)c3ccccc3CN2CCCCC(CN)NCc2ccc(OC)cc2)cc1 (stereo not drawn) [TRG 2411-95]	–
600 nM	1650 nM	–	–	CCCCNc1ccc(C2C(CNC3CCCCC3)c3ccccc3CN2CCCCC(CN)NCCc2ccc3ccccc3c2)cc1 (stereo not drawn) [TRG 2411-96]	–
90 nM	1170 nM	–	–	CCCCNc1ccc(C2C(CN)c3ccccc3CN2CCCCC(CN)NCCCC)cc1 (stereo not drawn) [TRG 2411-102]	–
160 nM	590 nM	–	–	CCCCNc1ccc(C2C(CN)c3ccccc3CN2CCCCC(CN)NCCc2ccccc2)cc1 (stereo not drawn) [TRG 2411-104]	–
210 nM	910 nM	–	–	CCCCNc1ccc(C2C(CN)c3ccccc3CN2CCCCC(CN)NCCc2ccc(Br)cc2)cc1 (stereo not drawn) [TRG 2411-105]	–
100 nM	1400 nM	–	–	CCCCNc1ccc(C2C(CN)c3ccccc3CN2CCCCC(CN)NCc2ccc(OC)cc2)cc1 (stereo not drawn) [TRG 2411-109]	–
100 nM	1050 nM	–	–	CCCCNc1ccc(C2C(CN)c3ccccc3CN2CCCCC(CN)NCCc2ccc3ccccc3c2)cc1 (stereo not drawn) [TRG 2411-110]	–
40 nM	1470 nM	–	–	CCCCNc1ccc(C2C(CN)c3ccccc3CN2CCCCC(CN)NCCC2CCCCC2)cc1 (stereo not drawn) [TRG 2411-111]	particularly effective MC receptor ligands
200 nM	1450 nM	–	–	CCCCNc1ccc(C2C(CN)c3ccccc3CN2CCCCC(CN)NCCN)cc1 (stereo not drawn) [TRG 2411-112]	–
820 nM	1430 nM	–	–	CCNC(CN)CCCN1Cc2ccccc2C(CNCCc2ccccc2)C1c1ccc(-c2ccccc2)cc1 (stereo not drawn) [TRG 2411-115]	–

IC50 (MCR-1; [1])	IC50 (MCR-4; [2])	IC50 (MCR-1; [3])	IC50 (MCR-4; [4])	SMILES	effectiveness as MC receptor ligand (MCR-1)
1240 nM	1980 nM	–	–	NCC(CCCN1Cc2ccccc2C(CNCCc2ccccc2)C1c1ccc(-c2ccccc2)cc1)NCCc1ccccc1 (stereo not drawn) [TRG 2411-116]	–
1320 nM	1490 nM	–	–	NCC(CCCN1Cc2ccccc2C(CNCCc2ccccc2)C1c1ccc(-c2ccccc2)cc1)NCc1ccccc1 (stereo not drawn) [TRG 2411-126]	–
1460 nM	1590 nM	–	–	CCCCNC(CN)CCCN1Cc2ccccc2C(CNC2CCCCC2)C1c1ccc(-c2ccccc2)cc1 (stereo not drawn) [TRG 2411-133]	–
1220 nM	1460 nM	–	–	COCCNC(CN)CCCN1Cc2ccccc2C(CN)C1c1ccc(-c2ccccc2)cc1 (stereo not drawn) [TRG 2411-146]	–
1260 nM	1190 nM	–	–	CCCCNC(CN)CCCN1Cc2ccccc2C(CN)C1c1ccc(-c2ccccc2)cc1 (stereo not drawn) [TRG 2411-147]	–
960 nM	1960 nM	–	–	NCC(CCCN1Cc2ccccc2C(CN)C1c1ccc(-c2ccccc2)cc1)NCC1CCCCC1 (stereo not drawn) [TRG 2411-148]	–
1170 nM	490 nM	–	–	NCC(CCCN1Cc2ccccc2C(CN)C1c1ccc(-c2ccccc2)cc1)NCc1ccccc1 (stereo not drawn) [TRG 2411-149]	–
–	–	120 nM	4540 nM	CCNc1ccc(C2C(CNCCc3ccccc3)c3ccccc3CN2CCCC(N)CN)cc1 (stereo not drawn) [TRG 2411-150]	–
–	–	90 nM	1780 nM	CCNc1ccc(C2C(CNCCc3ccccc3)c3ccccc3CN2CCCC(CN)NC)cc1 (stereo not drawn) [TRG 2411-151]	–
–	–	60 nM	520 nM	CCNc1ccc(C2C(CNCCc3ccccc3)c3ccccc3CN2CCCC(CN)NCC)cc1 (stereo not drawn) [TRG 2411-152]	–
–	–	80 nM	590 nM	CCCCNC(CN)CCCN1Cc2ccccc2C(CNCCc2ccccc2)C1c1ccc(NCC)cc1 (stereo not drawn) [TRG 2411-153]	–
–	–	90 nM	720 nM	CCNc1ccc(C2C(CNCCc3ccccc3)c3ccccc3CN2CCCC(CN)NCCc2ccccc2)cc1 (stereo not drawn) [TRG 2411-155]	–
–	–	120 nM	660 nM	CCNc1ccc(C2C(CNCCc3ccccc3)c3ccccc3CN2CCCC(CN)NCCc2ccc(Br)cc2)cc1 (stereo not drawn) [TRG 2411-156]	–
–	–	110 nM	670 nM	CCNc1ccc(C2C(CNCCc3ccccc3)c3ccccc3CN2CCCC(CN)NCCc2ccc(OC)cc2)cc1 (stereo not drawn) [TRG 2411-157]	–
–	–	100 nM	410 nM	CCNc1ccc(C2C(CNCCc3ccccc3)c3ccccc3CN2CCCC(CN)NCc2ccccc2)cc1 (stereo not drawn) [TRG 2411-158]	–
–	–	100 nM	350 nM	CCNc1ccc(C2C(CNCCc3ccccc3)c3ccccc3CN2CCCC(CN)NCc2ccc(Cl)cc2)cc1 (stereo not drawn) [TRG 2411-159]	–
–	–	90 nM	510 nM	CCNc1ccc(C2C(CNCCc3ccccc3)c3ccccc3CN2CCCC(CN)NCc2ccc(OC)cc2)cc1 (stereo not drawn) [TRG 2411-160]	–
–	–	160 nM	640 nM	CCNc1ccc(C2C(CNCCc3ccccc3)c3ccccc3CN2CCCC(CN)NCCc2ccc3ccccc3c2)cc1 (stereo not drawn) [TRG 2411-161]	–
–	–	110 nM	1220 nM	CCNc1ccc(C2C(CNCCc3ccccc3)c3ccccc3CN2CCCC(CN)NCCC2CCCCC2)cc1 (stereo not drawn) [TRG 2411-162]	–
–	–	180 nM	4020 nM	CCNc1ccc(C2C(CNC3CCCCC3)c3ccccc3CN2CCCC(CN)NCC)cc1 (stereo not drawn) [TRG 2411-164]	–

IC50 (MCR-1; [1])	IC50 (MCR-4; [2])	IC50 (MCR-1; [3])	IC50 (MCR-4; [4])	SMILES	effectiveness as MC receptor ligand (MCR-1)
–	–	370 nM	1110 nM	CCNc1ccc(C2C(CNC3CCCCC3)c3ccccc3CN2CCCC(CN)NCCc2ccc(Br)cc2)cc1 (stereo not drawn) [TRG 2411-167]	–
–	–	220 nM	440 nM	CCNc1ccc(C2C(CNC3CCCCC3)c3ccccc3CN2CCCC(CN)NCc2ccccc2)cc1 (stereo not drawn) [TRG 2411-169]	–
–	–	140 nM	1590 nM	CCNc1ccc(C2C(CNC3CCCCC3)c3ccccc3CN2CCCC(CN)NCCC2CCCCC2)cc1 (stereo not drawn) [TRG 2411-173]	–
–	–	70 nM	1430 nM	CCNc1ccc(C2C(CN)c3ccccc3CN2CCCC(CN)NCCc2ccccc2)cc1 (stereo not drawn) [TRG 2411-179]	–
–	–	120 nM	1060 nM	CCNc1ccc(C2C(CN)c3ccccc3CN2CCCC(CN)NCCc2ccc(Br)cc2)cc1 (stereo not drawn) [TRG 2411-180]	–
–	–	90 nM	1610 nM	CCNc1ccc(C2C(CN)c3ccccc3CN2CCCC(CN)NCc2ccc(OC)cc2)cc1 (stereo not drawn) [TRG 2411-184]	–
–	–	30 nM	580 nM	CCNc1ccc(C2C(CN)c3ccccc3CN2CCCC(CN)NCCC2CCCCC2)cc1 (stereo not drawn) [TRG 2411-186]	particularly effective MC receptor ligands
–	–	190 nM	210 nM	CCCCNc1ccc(C2C(CNCCc3ccccc3)c3ccccc3CN2CCCC(CN)NCC)cc1 (stereo not drawn) [TRG 2411-190]	–
–	–	120 nM	520 nM	CCCCNc1ccc(C2C(CNCCc3ccccc3)c3ccccc3CN2CCCC(CN)NCCCC)cc1 (stereo not drawn) [TRG 2411-191]	–
–	–	70 nM	880 nM	CCCCNc1ccc(C2C(CNCCc3ccccc3)c3ccccc3CN2CCCC(CN)N2CCCC2)cc1 (stereo not drawn) [TRG 2411-192]	–
–	–	150 nM	1240 nM	CCCCNc1ccc(C2C(CNCCc3ccccc3)c3ccccc3CN2CCCC(CN)NCCc2ccccc2)cc1 (stereo not drawn) [TRG 2411-193]	–
–	–	240 nM	1360 nM	CCCCNc1ccc(C2C(CNCCc3ccccc3)c3ccccc3CN2CCCC(CN)NCCc2ccc(Br)cc2)cc1 (stereo not drawn) [TRG 2411-194]	–
–	–	160 nM	1440 nM	CCCCNc1ccc(C2C(CNCCc3ccccc3)c3ccccc3CN2CCCC(CN)NCCc2ccc(OC)cc2)cc1 (stereo not drawn) [TRG 2411-195]	–
–	–	120 nM	1050 nM	CCCCNc1ccc(C2C(CNCCc3ccccc3)c3ccccc3CN2CCCC(CN)NCc2ccccc2)cc1 (stereo not drawn) [TRG 2411-196]	–
–	–	130 nM	1340 nM	CCCCNc1ccc(C2C(CNCCc3ccccc3)c3ccccc3CN2CCCC(CN)NCCC2CCCCC2)cc1 (stereo not drawn) [TRG 2411-200]	–
–	–	470 nM	860 nM	CCCCNc1ccc(C2C(CNC3CCCCC3)c3ccccc3CN2CCCC(CN)NCCc2ccc(Br)cc2)cc1 (stereo not drawn) [TRG 2411-208]	–
–	–	350 nM	1330 nM	CCCCNc1ccc(C2C(CNC3CCCCC3)c3ccccc3CN2CCCC(CN)NCCc2ccc(OC)cc2)cc1 (stereo not drawn) [TRG 2411-209]	–
–	–	100 nM	1930 nM	CCCCNc1ccc(C2C(CNC3CCCCC3)c3ccccc3CN2CCCC(CN)NCc2ccc(OC)cc2)cc1 (stereo not drawn) [TRG 2411-212]	–
–	–	220 nM	1950 nM	CCCCNc1ccc(C2C(CNC3CCCCC3)c3ccccc3CN2CCCC(CN)NCCc2ccc3ccccc3c2)cc1 (stereo not drawn) [TRG 2411-213]	–
